Test [1] concerns patient-derived organoids (PDOs). In words: Viability of patient-derived organoids of multiple tumor types (CellTiter-Glo, 5 days). The test is classed as cell-based, human. As for the experimental part: PDOs were treated with Compound 1 or controls (vehicle control—0.1% DMSO, positive control—10% DMSO) for 5 days. Viability was assessed using the CellTiter-Glo® assay. IC50 and maximal (max) inhibition values were extrapolated from the viability curves. Exemplars of models deemed to be highly responsive (>60% max inhibition; A), responsive (40-60% max inhibition; B), and non-responsive (<40% max inhibition; C) to Compound 1 are shown. Summary of all models tested (D); NR (No Regression, ambiguous nonlinear regression curves or R2<0.65) and NA (Not Applicable, ambiguous maximum inhibition). Compiled data of N=4 replicates.
Potency of Compound 1 was evaluated in a panel of patient-derived organoids (PDOs) representative of multiple tumor types.
• 1. Cryopreserved samples (200-300 mg or more depending on study design) were prepared as described below. • 2. The collected tumors were dissociated manually (using a tumor mincing process previously developed) or using the Gentle MACS Dissociator and human Tumor Dissociation Kit (Miltenyi). After preparation, tumor fragments were cultured in DMEM+10% FBS+1× antibiotic/antimycotic (“anti-anti”) plus 1:500 Primocin antimicrobial agent for up to 7 days before filtering out large fragments (using a 500 μm filter followed by 200 μm filters). • 3. Flow-through was cultured in: Cell-Tak coated low volume flat-bottom 384-well assay plates. • 4. 10× concentrations of test agent (or DMSO as vehicle) was added to media in volumes that will vary depending on culturing conditions. • 5. Each group had quadruplicate wells, including 0.1% DMSO (final as vehicle) and 10% DMSO as positive control. • 6. PBS was plated in the perimeter wells to avoid edge-effect artifacts. • 7. Cells were treated for 5 days and viability read via Cell Titer Glo. Viability was quantitatively assessed via Cell Titer Glo at Day 0 (baseline), Day 6 (baseline), and Day 6 (compound treatment-full dose response). […]
In general terms: In ATP-based viability assays light output follows the ATP content of the culture.

A further test relates to C6 cells. The experiment in a line: In vitro potency in glioblastoma cells, Realtime-Glo assay. The test is classed as cell-based. To be noted: Rattus norvegicus, FIG. 14A, read-out: In vitro potency (anti-cancer activity). The source says: (§1) FIG. 14A-14E show the efficacy of Compound 1 in glioblastoma cell lines in vitro and in a glioblastoma rat model (C6). A) In vitro potency of Compound 1 in four different glioblastoma cell lines as evaluated by Realtime-Glo™ assay (C6, and U87 cells) or ATPlite 1Step™ Perkin Elmer (performed by NTRC Oncolines; T98G and A-172 cells). B) Study design overview: C6 rat glioma cells (3×10^5) were implanted into the right entorhinal cortex/subiculum region of male Sprague Dawley rats and tumor burden was assessed 14 days post inoculation using MRI and animals randomized into […] (4) groups (vehicle control, 5 mg/kg, 10 mg/kg, and 20 mg/kg Compound 1) with 4 animals per group. […] C) Body weights were measured every two days. […]
(§2) Glioblastoma (GBM) is the most common and highly malignant form of primary brain tumor with a poor prognosis despite advances in treatments. […] Accordingly, the in vitro potency of Compound 1 was examined in four different glioblastoma cell lines as evaluated by Realtime-Glo™ assay (C6, and U87 cells) or ATPlite 1Step™ Perkin Elmer (performed by NTRC Oncolines; T98G and A-172 cells). […] Therefore, the in vivo tumor activity of Compound 1 was next assessed in Sprague Dawley rats implanted with C6 rat glioma cells into the right entorhinal cortex/subiculum region (AP: −7 mm; ML: 4.5 mm, DV: 5 mm). […]

The test system of the next test is U87 cells. The test is described as above. The class given is cell-based. To be noted: Homo sapiens, U-87 MG, FIG. 14A, read-out: In vitro potency (anti-cancer activity).
Text: as §1, §2

pIC50: −log10 of the molar value.

As for `COc1ccccc1-c1nc(CNC(=O)c2ccccc2OC(F)F)n[nH]1` [Compound 1, 2-(difluoromethoxy)-N-[[5-(2-methoxyphenyl)-1H-1,2,4-triazol-3-yl]methyl]benzamide], the “Response of PDO models (max inhibition class)” value in test [1] (Glioblastoma multiforme, SCLC, ovarian, endometrial, breast, prostate cancer, renal cell carcinoma) is reported as “responsive (responsive (40-60% max inhibition))”; in test [1] (colorectal cancer (FIG. 7C)), “non-responsive (non-responsive (<40% max inhibition))”; in test [1] (endometrial cancer, SCLC, sarcoma, breast cancer, NSCLC, ovarian cancer), “highly responsive (highly responsive (>60% max inhibition))”. The pIC50 in the test with C6 cells was 7.38; in the test on U87 cells, 7.05.

For the origin of these results see patent US20240342138A1, “MICROTUBULE TARGETING AGENTS” (BPGbio, Inc., priority 2023, published 2024).
